Experimental data from PubChem BioAssay AID256 (DTP/NCI, 2004).
Values joined by “and” are separate entries in the source; they are usually repeats but may differ in a detail not shown here. Identical values can stand only once. Toxic doses and inconclusive results are not listed.

System: CD2F1 mice, L1210 leukemia ip, survival T/C
Assay: NCI In Vivo Anticancer Drug Screen. Data for tumor model L1210 Leukemia (intraperitoneal) in CD2F1 (CDF1) mice
Details: endpoint: mean survival time, higher = longer survival
Summary of the method: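 Read-out first: treated-group measurement over vehicle-control measurement, expressed as a ratio. Animals bore a transplanted tumor line and were dosed with compound or vehicle.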

[1] = dose: 25.0 mg/kg/injection, schedule: Q01DX001 (ip), vehicle: saline with Tween-80
[2] = dose: 50.0 mg/kg/injection, schedule: Q01DX001 (ip), vehicle: saline with Tween-80
[3] = dose: 100.0 mg/kg/injection, schedule: Q01DX001 (ip), vehicle: saline with Tween-80
[4] = dose: 100.0 mg/kg/injection, schedule: Q01DX009 (ip), vehicle: Klucel (hydroxypropylcellulose) (HPC)
[5] = dose: 100.0 mg/kg/injection, schedule: Q01DX009 (ip), vehicle: saline with Tween-80
[6] = dose: 200.0 mg/kg/injection, schedule: Q01DX009 (ip), vehicle: saline with Tween-80
[7] = dose: 400.0 mg/kg/injection, schedule: Q01DX009 (ip), vehicle: saline with Tween-80
[8] = dose: 25.0 mg/kg/injection, schedule: Q01DX009 (ip), vehicle: saline with Tween-80
[9] = dose: 50.0 mg/kg/injection, schedule: Q01DX009 (ip), vehicle: saline with Tween-80

## O=C(NCC#CCN1CCCC1)Nc1cccc(Cl)c1
dose: 12.5 mg/kg/injection, schedule: Q04DX002 (ip), vehicle: saline with Tween-80
  T/C: 102 % of control
[1]
  T/C: 92 % of control
dose: 25.0 mg/kg/injection, schedule: Q04DX002 (ip), vehicle: saline with Tween-80
  T/C: 95 % of control
[2]
  T/C: 106 % of control
dose: 50.0 mg/kg/injection, schedule: Q04DX002 (ip), vehicle: saline with Tween-80
  T/C: 87 % of control
[3]
  T/C: 92 % of control and 93 % of control
dose: 100.0 mg/kg/injection, schedule: Q04DX002 (ip), vehicle: saline with Tween-80
  T/C: 98 % of control

## O=S(=O)(Cc1ccc(Cl)cc1Cl)Cc1ccc(Cl)cc1Cl
[4]
  T/C: 98 % of control
dose: 200.0 mg/kg/injection, schedule: Q01DX009 (ip), vehicle: Klucel (hydroxypropylcellulose) (HPC)
  T/C: 91 % of control
dose: 400.0 mg/kg/injection, schedule: Q01DX009 (ip), vehicle: Klucel (hydroxypropylcellulose) (HPC)
  T/C: 92 % of control

## Cc1ccc(NC(=O)Nc2cccc(CNC(=O)COc3ccc(Cl)cc3C(=O)O)c2)cc1S(=O)(=O)F
[1]
  T/C: 102 % of control
[2]
  T/C: 96 % of control
[3]
  T/C: 93 % of control
dose: 200.0 mg/kg/injection, schedule: Q01DX001 (ip), vehicle: saline with Tween-80
  T/C: 86 % of control
dose: 400.0 mg/kg/injection, schedule: Q01DX001 (ip), vehicle: saline with Tween-80
  T/C: 88 % of control

## NC(=O)/C=C/C1=NCCC1
dose: 7.5 mg/kg/injection, schedule: Q04DX003 (ip), vehicle: saline with Tween-80
  T/C: 97 % of control
dose: 15.0 mg/kg/injection, schedule: Q04DX003 (ip), vehicle: saline with Tween-80
  T/C: 97 % of control
dose: 30.0 mg/kg/injection, schedule: Q04DX003 (ip), vehicle: saline with Tween-80
  T/C: 102 % of control
[5]
  T/C: 100 % of control
[6]
  T/C: 103 % of control
[7]
  T/C: 103 % of control

## O=[N+]([O-])c1ccc(CCCl)c(CCl)c1
dose: 100.0 mg/kg/injection, schedule: Q04DX003 (ip), vehicle: saline with Tween-80
  T/C: 98 % of control
dose: 200.0 mg/kg/injection, schedule: Q04DX003 (ip), vehicle: saline with Tween-80
  T/C: 86 % of control

## CCOC(=O)C([NH-])CC[NH-].[Cl][Pt+2][Cl] (stereo not given)
dose: 12.5 mg/kg/injection, schedule: Q04DX003 (ip), vehicle: saline with Tween-80
  T/C: 182 % of control
dose: 25.0 mg/kg/injection, schedule: Q04DX003 (ip), vehicle: saline with Tween-80
  T/C: 210 % of control
dose: 50.0 mg/kg/injection, schedule: Q04DX003 (ip), vehicle: saline with Tween-80
  T/C: 93 % of control

## CC(=O)OC1CCC2C3CCC4(C)C(C(C)CCCC(C)C)CCC4C3CC(C)(O)C2C1 (stereo not given)
dose: 100.0 mg/kg/injection, schedule: Q01DX001 (sc), vehicle: steriod suspending solution
  T/C: 101 % of control
dose: 200.0 mg/kg/injection, schedule: Q01DX001 (sc), vehicle: steriod suspending solution
  T/C: 101 % of control
dose: 400.0 mg/kg/injection, schedule: Q01DX001 (sc), vehicle: steriod suspending solution
  T/C: 101 % of control

## CCOc1c(Cl)cc(Cl)cc1C(c1ccc(Cl)cc1S(=O)(=O)O)c1cc(Cl)cc(Cl)c1OCC
[8]
  T/C: 98 % of control
[9]
  T/C: 89 % of control
[5]
  T/C: 86 % of control

## CNC(=O)OCc1c(COC(=O)NC)c(C)n(-c2ccc(OC)cc2)c1C
dose: 3.12 mg/kg/injection, schedule: Q01DX009 (ip), vehicle: Klucel (hydroxypropylcellulose) (HPC)
  T/C: 101 % of control and 106 % of control
dose: 6.25 mg/kg/injection, schedule: Q01DX009 (ip), vehicle: Klucel (hydroxypropylcellulose) (HPC)
  T/C: 101 % of control and 106 % of control
dose: 12.5 mg/kg/injection, schedule: Q01DX009 (ip), vehicle: Klucel (hydroxypropylcellulose) (HPC)
  T/C: 113 % of control and 102 % of control
dose: 25.0 mg/kg/injection, schedule: Q01DX009 (ip), vehicle: Klucel (hydroxypropylcellulose) (HPC)
  T/C: 121 % of control and 98 % of control
dose: 50.0 mg/kg/injection, schedule: Q01DX009 (ip), vehicle: Klucel (hydroxypropylcellulose) (HPC)
  T/C: 116 % of control and 121 % of control
[4]
  T/C: 87 % of control

## CCOCc1ccc(C(=O)O)cc1
[5]
  T/C: 96 % of control
[6]
  T/C: 101 % of control
[7]
  T/C: 101 % of control

## CN1CCC(c2ccccc2)(c2ccccc2)OC1
[8]
  T/C: 106 % of control
[9]
  T/C: 98 % of control
[5]
  T/C: 110 % of control

## Cc1ccc(NC(=O)Nc2cccc(C(=O)O)c2)cc1[N+](=O)[O-]
[9]
  T/C: 94 % of control
[5]
  T/C: 98 % of control
[6]
  T/C: 98 % of control

## CN(N=O)c1nnnn1C
dose: 100.0 mg/kg/injection, schedule: Q04DX003 (ip), vehicle: saline
  T/C: 105 % of control
dose: 200.0 mg/kg/injection, schedule: Q04DX003 (ip), vehicle: saline
  T/C: 103 % of control
dose: 400.0 mg/kg/injection, schedule: Q04DX003 (ip), vehicle: saline
  T/C: 106 % of control
